Each structure is given as a SMILES string.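 Growth conditions: 96-well plates. Treatment: test compound, 48 hours, 5 concentrations. Analysis: linear interpolation between bracketing concentrations; unreached endpoints set to highest concentration. Abbreviation: GI50, concentration required for 50% inhibition of growth.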 Active and inactive are the calls of the source. No stated cut-off is given here; in the data, active = GI50 up to about 1.1 µM and inactive = higher. A value given as a limit tells only on which side of the number the result lay.

Among the test systems are CCRF-CEM; Malme-3M; HOP-62; DLD-1; NCI-H226; TK-10; OVCAR-5; SK-MEL-28; RPMI-8226; UACC-62; KM12; NCI-H522; A498; U-251; SNB-19; OVCAR-3; SK-OV-3; MOLT-4; SR; MCF7.
Common to all, as to assay: NCI anticancer screen, dose series, 48 h

Consider `O=C(CCC(=O)Nc1ccccc1C(F)(F)F)N/N=C1\C(=N\NC(=O)CCC(=O)Nc2ccccc2C(F)(F)F)C(c2ccc3c(c2)OCO3)Oc2ccccc21` (stereo not drawn), for which the GI50 is 4.26 µM (inactive) in the test with CCRF-CEM; > 100 µM (inactive) with Malme-3M; 4.28 µM (inactive) with HOP-62; 5.04 µM (inactive) with DLD-1; 10.6 µM (inactive) in the test with NCI-H226; > 64.7 µM (inactive) in the test on TK-10. Besides, the GI50 with OVCAR-5 was > 100 µM (inactive); in the test on SK-MEL-28, > 100 µM (inactive); with RPMI-8226, 4.44 µM (inactive); in the test on UACC-62, 5.46 µM (inactive); in the test with KM12, 26.2 µM (inactive); with NCI-H522, 4.74 µM (inactive). The GI50 in the test on A498 was 51.3 µM (inactive); in the test on U-251 it was 4.97 µM (inactive); in the test on SNB-19, 13.2 µM (inactive); in the test on OVCAR-3, 3.43 µM (inactive); in the test on SK-OV-3, 20.7 µM (inactive); in the test with MOLT-4, 3.01 µM (inactive). Further, the GI50 with SR is 3.59 µM (inactive).
With `C=C1C(=O)C[C@@]23CCC[C@@]12CC(O)C3` (stereo partly drawn), the GI50 in the test with CCRF-CEM was 10.3 µM (inactive); with Malme-3M, 0.855 µM (active); in the test with HOP-62 it was > 63 µM (inactive); in the test on DLD-1, 18.6 µM (inactive); with NCI-H226, 21.2 µM (inactive); in the test on OVCAR-5, 23.4 µM (inactive). Also, the GI50 is 21.5 µM (inactive) with SK-MEL-28; 15.6 µM (inactive) in the test on RPMI-8226; 13.6 µM (inactive) in the test on UACC-62; 20.8 µM (inactive) in the test with KM12; 2.37 µM (inactive) with NCI-H522; 16.7 µM (inactive) in the test with MCF7. The GI50 was 15 µM (inactive) in the test with A498; 40.3 µM (inactive) in the test with U-251; 85.7 µM (inactive) with SNB-19; 13.1 µM (inactive) in the test with OVCAR-3; 28.1 µM (inactive) in the test with SK-OV-3; 23.4 µM (inactive) in the test with MOLT-4.
For `Nc1nc(SCCC/C=C/I)nc2c1ncn2C1OC(CO)C(O)C1O` (stereo not drawn), the GI50 in the test with CCRF-CEM was 98.4 µM (inactive); in the test on Malme-3M, > 202 µM (inactive); with HOP-62, > 202 µM (inactive); with DLD-1, > 202 µM (inactive); with NCI-H226, > 202 µM (inactive); in the test on TK-10, > 202 µM (inactive). Besides, the GI50 in the test on OVCAR-5, in the test with SK-MEL-28, in the test with RPMI-8226, with UACC-62, in the test with KM12 and with NCI-H522 was > 202 µM (inactive) each time. In addition, the GI50 was > 202 µM (inactive) in the test on A498; > 202 µM (inactive) with U-251; > 202 µM (inactive) with SNB-19; > 202 µM (inactive) in the test on OVCAR-3; > 202 µM (inactive) with SK-OV-3; 99.5 µM (inactive) with MOLT-4. Moreover, the GI50 in the test on SR was > 202 µM (inactive).
As to `CCCCCCCCCCC(C)CCCCCCC(=O)O` (stereo not drawn), the GI50 in the test on CCRF-CEM, in the test on Malme-3M, in the test on HOP-62, with DLD-1, with NCI-H226 and with TK-10 was > 100 µM (inactive) in each case. The GI50 in the test with OVCAR-5, in the test on SK-MEL-28, with RPMI-8226, with UACC-62, in the test with KM12 and with NCI-H522 was > 100 µM (inactive) throughout. For the same compound, the GI50 in the test on A498, in the test with U-251, in the test on SNB-19, in the test on OVCAR-3, in the test on SK-OV-3 and in the test on MOLT-4 was > 100 µM (inactive) each time. In addition, in the test on SR, the GI50 is > 100 µM (inactive).
Consider `CCCCC(C)C1CCC2(C)C=CC(=O)C(C)=C2C1O` (stereo not drawn), for which the GI50 in the test on CCRF-CEM, in the test with HOP-62, in the test with DLD-1, in the test with NCI-H226, with OVCAR-5 and in the test on SK-MEL-28 was > 100 µM (inactive) in each case. Also, the GI50 in the test on RPMI-8226, in the test with UACC-62, in the test on KM12, in the test with NCI-H522, in the test on MCF7 and in the test with A498 was > 100 µM (inactive) each time. Further, the GI50 with U-251, in the test with SNB-19, in the test with OVCAR-3, in the test on SK-OV-3 and with MOLT-4 was > 100 µM (inactive) in each case.
Regarding `CS(=O)(=O)OCC1=C(COS(C)(=O)=O)C(=O)c2c(O)ccc(O)c2C1=O`, the GI50 with CCRF-CEM, with Malme-3M, with HOP-62, in the test with DLD-1, with NCI-H226 and in the test with TK-10 was > 100 µM (inactive) throughout. Besides, the GI50 in the test with OVCAR-5, in the test on SK-MEL-28, with RPMI-8226, in the test on UACC-62, in the test with KM12 and in the test with NCI-H522 was > 100 µM (inactive) in each case. Besides, the GI50 in the test on A498, in the test with U-251, in the test on OVCAR-3, in the test with SK-OV-3, in the test on MOLT-4 and in the test with SR was > 100 µM (inactive) throughout.
Turning to `O=C(O)c1cc2c3c(c1)[C@H]1C=CC[C@H]1CN3CC1CC=CC21` (stereo partly drawn), the GI50 in the test on CCRF-CEM, with Malme-3M, in the test on HOP-62, in the test with DLD-1, with NCI-H226 and in the test with TK-10 was > 100 µM (inactive) in each case. The GI50 in the test on OVCAR-5, with RPMI-8226, with UACC-62, in the test with KM12, in the test with NCI-H522 and in the test on A498 was > 100 µM (inactive) throughout. In addition, the GI50 in the test on U-251, with SNB-19, in the test with OVCAR-3, in the test with SK-OV-3, with MOLT-4 and in the test on SR was > 100 µM (inactive) each time.
As to `CC1C(O)C2(Oc3cc4c(c5c3[C@@H](CC5O)[C@H]2C)CCC2Cc3nc5c(nc3C[C@@]42C)CC2CCC3C4=C[C@H]6O[C@@]7(O[C@@](C)(CO)C[C@@H]7O)C(C)[C@@]6(O)[C@]4(C)[C@@H](O)CC3[C@]2(C)C5)OC1(C)C` (stereo partly drawn), the GI50 was 0.0582 µM (active) in the test on CCRF-CEM; 0.0927 µM (active) with Malme-3M; 0.0715 µM (active) with HOP-62; 1.1 µM (active) in the test on DLD-1; 0.135 µM (active) in the test with NCI-H226; 0.435 µM (active) with OVCAR-5. Besides, the GI50 in the test on RPMI-8226 was 0.0364 µM (active); in the test on UACC-62, 0.0877 µM (active); in the test with KM12, 0.241 µM (active); in the test with NCI-H522, 0.123 µM (active); with MCF7, 0.117 µM (active); in the test on A498, 0.0652 µM (active). For the same compound, the GI50 in the test on U-251 is 0.00302 µM (active); in the test on OVCAR-3 it was 0.0891 µM (active); in the test with SK-OV-3, 0.139 µM (active).

For the origin of these results see ChEMBL document CHEMBL1201862, “PubChem BioAssay data set” (2004).
